Experiments:
[1] = Solubility of mangiferin-berberine salt in water; assay type: physicochemical
Method: Its chemical structure is as follows:
5 mg mangiferin-berberine salt powder which is weighed up accurately is put into 50 ml distilled water under 25° C.±2° C., the solution is shaken strongly 30 seconds every 5 minutes. There are solute particles in 30 minutes. The water solubility of mangiferin-berberine salt is less than 0.1 mg/ml. Mangiferin-berberine salt is hardly solubility substance in water.

[2] = Solubility in different pH water (hydrochloric acid adjusted); assay type: physicochemical
Method: (§1) As the pH of human gastric juice is 1-3, the above properties of mangiferin-berberine salt can be well dissolved in gastric juice, which is very conducive to the absorption of drugs in the body. Any ratio mangiferin-berberine composition can not increase the solubility in the acidic water.
Take pure water; add hydrochloric acid to adjust pH to 1 and 3 and 5 separately. Take the water 50 ml of different pH; weigh up accurately 50 mg mangiferin-berberine salt powder, put into the 50 ml water as above, shake and observe dissolved phenomena.
Take the water 50 ml of different pH 1 and 3; weigh up accurately 100 mg mangiferin-berberine salt powder, put into the 50 ml water as above, shake and observed dissolved phenomena.
Take the water 50 ml of pH 1; weigh up accurately 200 mg mangiferin-berberine salt powder, put into the 50 ml water as above, shake and observed dissolved situation.
Take the water 50 ml of pH 1 for three copies; weigh up accurately 50 mg mangiferin and berberine composition powder (the molecular ratio of mangiferin and berberine is 1:1, 1:3, 1:5), put into the 50 ml water as above separately, shake and observed dissolved phenomena. The trace of the mangiferin and berberine compositions that include all ratios as above can dissolve.

[3] = Precipitation of the acidic solutions at room temperature within 24 hours; assay type: physicochemical; conditions: for precipitate on standing: room temperature, 12 hours
Method: as §1
Mark all above the mangiferin-berberine salt solutions, places them at room temperature, observe the phenomenon within 24 hours.

[4] = Accelerated stability test, content by HPLC; assay type: physicochemical
Method: Put several parts of mangiferin-berberine salt into glass bottles, seal, set inside drug stability chamber, set accelerated testing conditions to: 40° C.±2° C./75% RH+5% RH. At 0 and 1 and 2 months, sample, determine the content of mangiferin-berberine salt by HPLC.

AMPK = assay: Activation of AMPK in L6 cells (Western blot, phospho-AMPK Thr172); assay type: cell-based, rat; conditions: 1.25-5 μmol/L, 3 h, dose-dependent
Method: (§2) Mangiferin-berberine salt that is obtained by the method of embodiments as above dissolves in DMSO. Before use it is diluted by culture medium or HBS. The ultimate concentration of DMSO is less than 0.2%.
(§3) The rat L6 cell line was obtained from the ATCC. HG-DMEM was from GIBCO™. Fetal bovine serum (FBS) was purchased from Hyclone. Anti-AMPK, anti-ACC, antiphospho-AMPK (Thr172), antiphospho-ACC (ser79) polyclonal antibodies were from Cell Signal Technology.
(§4) L6 cells were grown in HG-DMEM containing 10% (v/v) FBS, 100 units/ml penicillin and 100 U/ml streptomycin in a humidified atmosphere of 5% CO2 at 37° C. When the cells covered 60%, the medium was switched to HG-DMEM with 2% FBS and the culture medium was replaced every two days until that the cells covered about 90%.
(§5) Cells in 6-well plates were starved in serum-free HG-DMEM, and then samples were added into serum-free HG-DMEM; the concentration of DMSO is 0.2%. The samples incubated for 3 h in the cells. […]
(§6) Samples were electrophoresed on 10% SDS-polyacrylamide gels, and transferred to PVDF membranes under 100V and 1-2 h in the transmembrane instrument. Protein in the gel was transferred to […] under the state of half dry, and the band was determined by Ponceau S (Ponceau S). […]

ACC = assay: Phosphorylation of ACC in L6 cells (Western blot, phospho-ACC ser79); assay type: cell-based, rat; conditions: 1.25-5 μmol/L, 3 h, dose-dependent
Method: as §2, §3, §4, §5, §6

[5] = system: human hepatoma cell line Bel-7402; assay: Chemosensitizing effect on tumor cells (MTT cytotoxicity); assay type: cell-based; conditions: 72 h
Method: Mangiferin-berberine salt (BM) was obtained by the method of embodiments as above. Cisplatin (DDP), adriamycin (ADM) and taxol were purchased from the market. Samples were dissolved in DMSO.
DMSO group, BM group (20 μmol/L), DDP group (1 μmol/L), ADM group (1 μmol/L), TAXOL group (1 μmol/L), BM (20 μmol/L)+DDP (1 μmol/L) group, BM (20 μmol/L)+ADM (1 μmol/L) group, BM (20 μmol/L)+TAXOL (1 μmol/L) group.
In accordance with 10^3-10^4/well, cultured human hepatoma cell line Bel-7402 200 μl per well were inoculated into 96-well cell culture plate, the samples were added after 24 hours. For those groups which are composed of the two samples, after mangiferin-berberine salt and cells were cultured together for 3 h, DDP or ADM or TAXOL were added, cultured for 72 h. Finally cell toxicity was determined by tetrazolium salt reduction (MTT). Experiments were repeated twice.

KK-ay mice = assay: Effect on KK-ay mice (glucose, lipid, insulin, UAER, liver enzymes); assay type: in vivo; conditions: 40 mg/kg orally for 30 days, versus model group
Method: Mangiferin-berberine salt was obtained by the method of examples as above. Mangiferin-berberine salt was suspended with 3‰ sodium carboxymethyl cellulose before use. Rosiglitazone hydrochloride was purchased from Zhejiang wanma pharmaceutical Co., Ltd.
KK-ay mice, 16 weeks age, male.
KK-ay mice group (n=10); mangiferin-berberine salt low dose group (20 mg/kg, n=10, BML); mangiferin-berberine salt middle dose group (40 mg/kg, n=10, BMM); mangiferin-berberine salt high dose group (80 mg/kg, n=10), BMH metformin group[500 mg/kg, n=10]. Test samples or vehicle control was given orally for 30 days. KK-ay mice group were given vehicle.
The blood specimens were taken at the end of the experiment. Plasma glucose (GLU, mmol/L), lipid [triglycerides (TG, mmol/L), total cholesterol (TC, mmol/L), low density lipoprotein (LDL, mmol/L), high density lipoprotein (HDL, mmol/L)], liver enzyme [ALT(U/L) and AST(U/L)] were determined using GF-D800 semi-auto chemist which was purchased from Shandong Gaomi Caihong Analytical Instrument Co., Ltd.
Insulin: Radioimmunoassays (RIA), γ counter counts. insulin RIA Kit was purchased from Shandong Weifang City three-dimensional (3V) Biological Company. Urinary albumin. Collected urine for 24 h by metabolic cages, and recorded the output of urine. Urine was centrifuged, supernatant was taken, it was saved at −80° C. Free urinary were collected weekly Monday 13:00 by tail raise reflection. Assay urinary albumin by competitive ELISA, calculate the urinary albumin excretion rate (urinary albumin excretion rate=urinary albumin concentration (mg/L)×urine volume (ml)/total collection time (minutes)=mg/min, UAER), the units of figure is mg/24 h.
The results have been calculated as mean±SD ( x±SD) and comparisons of the data have been done by t-test.

dementia rats = assay: Effect on Aβ1-40-induced dementia rats (Morris water maze); assay type: in vivo; conditions: versus model group
Method: SD male rats, SPF, 250˜300 g, free drinking water and eating food, before the experiment in a lab environment adapted for 2-3d, the temperature of the laboratory was controlled at 25° C., relative humidity was 40%-80%.
Sham surgery rats group (control group, n=10) were injected the saline of an equal volume in the hippocampus; model rats group (n=10) were treated by Aβ1-40; mangiferin-berberine salt low dose group (20 mg/kg, n=10, BML); mangiferin-berberine salt middle dose group (40 mg/kg, n=10, BMM); mangiferin-berberine salt high dose group (80 mg/kg, n=10, BMH).
Test samples or vehicle control was given orally for 4 weeks, one week before modeled. Maze training period, administrated in 0.5 h before training.
Injected […] into the hippocampus of rats to establish animal model of AD. As follows: […]
Spatial learning and memory tests: Morris water maze method. Platform located in the northeast quadrant of the middle of the maze; the water level is 1.5 cm above the platform; the temperature of water was maintained at 19° C.˜20° C.; rats were continuously training for 5d, twice a day; we set the maximum swimming time of 70s, recorded the time that rats found the platform (latent period, EL) by stopwatch.

rheumatoid arthritis rat = assay: Effect on rheumatoid arthritis rat (collagen type II model), foot swelling; assay type: in vivo, rats; conditions: versus model group
Method: (§7) Wistar rats, female, 100±20 g. Acid-soluble Bovine-derived collagen type II (Collagen II) and Freund's incomplete adjuvant was purchased from Sigma. TNF-α kit was purchased from Nanjing Jiancheng Biological Engineering Institute.
(§8) The Acid-soluble Bovine-derived collagen type II (C II) with Freund's incomplete adjuvant, was made up to 2.5 mg/ml emulsion, Every rat was injected emulsion containing […] by intradermal in the right rear paw in order to inflame.
(§9) Normal rats group (control group, n=10); model rats group (n=10); mangiferin-berberine salt low dose group (10 mg/kg, n=10, BML); mangiferin-berberine salt middle dose group (20 mg/kg, n=10, BMM); mangiferin-berberine salt high dose group (40 mg/kg, n=10, BMH); Dexamethasone Sodium Phosphate group (0.1 mg/kg, Dexa, n=10).
(§10) Two weeks after primary immunization, test samples or vehicle control was given orally for 4 weeks. Normal and model rats group were given the saline of an equal volume.
Foot swelling: Measurement the volume of right hind foot by capillary enlarge measure method, calculated swelling growth percentage [(value after administration−value before administration)/value before administration]×100%.

TNF-α = assay: Serum TNF-α in rheumatoid arthritis rat (ELISA); assay type: in vivo, rats; conditions: versus model group
Method: as §7, §8, §9, §10
4.2 Cytokines: The blood specimens were taken from femoral artery at the end of the experiment, and serum was extracted, then frozen. TNF-α was measured according to the instructions of ELISA kit.

[6] = high dose (40 mg/kg) orally for 4 weeks
[7] = middle dose (20 mg/kg) orally for 4 weeks

mangiferin-berberine salt
water solubility ([1]; 5 mg in 50 ml distilled water, 25° C.±2° C., 30 minutes): less than 0.1 mg/ml
solubility in boiling water ([1]; boiling water): slightly soluble in boiling water
solubility in water ([1]; water): Almost insoluble in water
dissolved phenomena ([2]; 50 mg in 50 ml water, pH 1): dissolved rapidly in the water of pH 1 in a few seconds
dissolved phenomena ([2]; 50 mg in 50 ml water, pH 3): dissolved in the water of pH 3 in five minutes
dissolved phenomena ([2]; 50 mg in 50 ml water, pH 5): did not dissolve completely
dissolved phenomena ([2]; 100 mg in 50 ml water, pH 1): dissolved in the water of pH 1 in a minute
dissolved phenomena ([2]; 100 mg in 50 ml water, pH 3): did not dissolve completely
dissolved situation ([2]; 200 mg in 50 ml water, pH 1): can dissolve in the water of pH 1, but there is precipitation soon in the solution
solubility in strong acid solution ([2]; strong acid solution, the smaller the pH, the better it dissolves): dissolves in strong acid solution
precipitate on standing ([3]; pH 1, 4 mg/ml): more precipitate
precipitation in acid solution ([3]; pH 1-3, concentration below 2 mg/ml, within 12 hours): precipitation is only traces
precipitation in acid solution ([3]; pH 1-3, concentration greater than 4 mg/ml): precipitates soon after it dissolves
precipitate on standing ([3]; pH 1 and 3, 1 mg/ml and 2 mg/ml): trace precipitate
content of mangiferin-berberine salt by HPLC ([4]; 40° C.±2° C./75% RH+5% RH, sealed glass bottles, 0, 1 and 2 months): do not significantly change
shelf time at room temperature ([4]; suggested from the accelerated test): > 1 year
phosphorylation of AMPK (AMPK): increases significantly
phosphorylation of ACC (ACC): increases significantly
cytotoxicity combined with ADM versus ADM alone ([5]; Bel-7402, BM 20 μmol/L 3 h before ADM 1 μmol/L): significantly higher
cytotoxicity combined with DDP versus DDP alone ([5]; Bel-7402, BM 20 μmol/L 3 h before DDP 1 μmol/L): significantly higher
cytotoxicity combined with TAXOL versus TAXOL alone ([5]; Bel-7402, BM 20 μmol/L 3 h before TAXOL 1 μmol/L): significantly higher
INS (KK-ay mice): significantly improves
ISI (KK-ay mice): significantly improves
UAER (KK-ay mice): significantly improves
blood glucose (KK-ay mice): significantly improves
lipid (KK-ay mice): significantly improves
liver enzymes (KK-ay mice): significantly improves
EL (latent period) of fifth day, Morris water maze (dementia rats; high dose (80 mg/kg) orally for 4 weeks): significantly reduced
EL (latent period) of fifth day, Morris water maze (dementia rats; middle dose (40 mg/kg) orally for 4 weeks): significantly reduced
paw swelling (rheumatoid arthritis rat; [6]): significantly inhibited
paw swelling (rheumatoid arthritis rat; [7]): significantly inhibited
secretion of cytokine TNF-α (TNF-α; [6]): significantly inhibited
secretion of cytokine TNF-α (TNF-α; [7]): significantly inhibited
